Data published in patent publication US7951964B2, “Fluorine-containing boronic acid ester compound and method for producing the same” (Unimatec Co., Ltd., priority 2008, dated 2011).

Assay: Solubility in the fluorine-containing organic solvent 1,3-bis(trifluoromethyl)benzene (maximum amount giving a homogeneous solution, judged visually)
Conditions: 10 ml of 1,3-bis(trifluoromethyl)benzene, 25° C., stirred, visually measured

For `CC1(C)OB(c2cc(B3OC(C)(C)C(C)(C)O3)cc(B3OC(C)(C)C(C)(C)O3)c2)OC1(C)C` [1,3,5-tris(4,4,5,5-tetramethyl-1,3,2-dioxaborolan-2-yl)benzene], the “solubility in 1,3-bis(trifluoromethyl)benzene” value (from here on “solubility”) was 0.20 g/10 ml solvent.

For `OB(O)c1ccc(B(O)O)cc1` [1,4-benzene diboronic acid], the “solubility” value was “insoluble”.

For `CC1(C)OB(c2ccc(B3OC(C)(C)C(C)(C)O3)cc2)OC1(C)C` [1,4-bis(4,4,5,5-tetramethyl-1,3,2-dioxaborolan-2-yl)benzene], the “solubility” value was 0.17 g/10 ml solvent.

For `CC1(C)OB(c2cc(OCCCC(F)(F)C(F)(F)C(F)(F)C(F)(F)C(F)(F)C(F)(F)F)cc(B3OC(C)(C)C(C)(C)O3)c2)OC1(C)C` [Example, 1-(1H,1H,2H,2H,3H,3H-perfluorononane-1-yloxy)-3,5-bis-(4,4,5,5-tetramethyl-1,3,2-dioxaborolan-2-yl)benzene], the “solubility” value was 5.0 g/10 ml solvent.
